Results as given in PubChem BioAssay (NCI).
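Method: 48-hour compound exposure of cells in 96-well plates, five concentrations, linear interpolation of endpoints. The concentration for full growth arrest is given as TGI.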

Columns and labels:
Test in all cases: growth of human tumour cells (NCI), 48 h
MCF7 breast = system: MCF7 breast
NCI-H23 lung = system: NCI-H23 lung
SK-MEL-2 melanoma = system: SK-MEL-2 melanoma
SK-MEL-5 melanoma = system: SK-MEL-5 melanoma
UACC-62 melanoma = system: UACC-62 melanoma
786-0 renal = system: 786-0 renal
A549 NSCLC = system: A549 NSCLC
SF-295 CNS = system: SF-295 CNS
NCI/ADR-RES ovarian = system: NCI/ADR-RES ovarian
A498 renal = system: A498 renal
SK-OV-3 ovarian = system: SK-OV-3 ovarian
SR leukemia = system: SR leukemia
HT29 colon = system: HT29 colon
CAKI-1 renal = system: CAKI-1 renal
SF-539 CNS = system: SF-539 CNS
MALME-3M melanoma = system: MALME-3M melanoma
K-562 leukemia = system: K-562 leukemia
PC-3 prostate = system: PC-3 prostate
RPMI-8226 leukemia = system: RPMI-8226 leukemia
SF-268 CNS = system: SF-268 CNS
RXF 393 renal = system: RXF 393 renal
DU-145 prostate = system: DU-145 prostate
MOLT-4 leukemia = system: MOLT-4 leukemia
OVCAR-5 ovarian = system: OVCAR-5 ovarian
HS 578T breast = system: HS 578T breast
HOP-62 NSCLC = system: HOP-62 NSCLC
HL-60(TB) leukemia = system: HL-60(TB) leukemia
M14 melanoma = system: M14 melanoma
ACHN renal = system: ACHN renal
LOX IMVI melanoma = system: LOX IMVI melanoma
UO-31 renal = system: UO-31 renal
MDA-N = system: MDA-N
IGROV1 ovarian = system: IGROV1 ovarian
UACC-257 melanoma = system: UACC-257 melanoma
OVCAR-8 ovarian = system: OVCAR-8 ovarian
SNB-19 CNS = system: SNB-19 CNS
BT-549 breast = system: BT-549 breast
NCI-H522 lung = system: NCI-H522 lung
U251 CNS = system: U251 CNS
COLO 205 colon = system: COLO 205 colon
KM12 colon = system: KM12 colon
SW-620 colon = system: SW-620 colon
SN12C renal = system: SN12C renal
MDA-MB-435 = system: MDA-MB-435
NCI-H460 lung = system: NCI-H460 lung
T-47D breast = system: T-47D breast
MDA-MB-231 breast = system: MDA-MB-231 breast
HOP-92 NSCLC = system: HOP-92 NSCLC
OVCAR-3 ovarian = system: OVCAR-3 ovarian
OVCAR-4 ovarian = system: OVCAR-4 ovarian
TK-10 renal = system: TK-10 renal
CCRF-CEM leukemia = system: CCRF-CEM leukemia
SK-MEL-28 melanoma = system: SK-MEL-28 melanoma
HCC-2998 colon = system: HCC-2998 colon
HCT-15 colon = system: HCT-15 colon
EKVX NSCLC = system: EKVX NSCLC
HCT-116 colon = system: HCT-116 colon
NCI-H226 lung = system: NCI-H226 lung

COc1ccc(-n2c3c(c4c(CN(C)C)c(O)ccc42)C(=O)c2ccccc2C3=O)cc1
TGI (MCF7 breast): 24.9 µM
TGI (NCI-H23 lung): 29.6 µM
TGI (SK-MEL-2 melanoma): 45.8 µM
TGI (SK-MEL-5 melanoma): 5.67 µM
TGI (UACC-62 melanoma): 15.7 µM
TGI (786-0 renal): 4.52 µM
TGI (A549 NSCLC): 37.5 µM
TGI (SF-295 CNS): 33.2 µM
TGI (NCI/ADR-RES ovarian): 26.3 µM
TGI (A498 renal): 8.47 µM
TGI (SK-OV-3 ovarian): 8.01 µM
TGI (SR leukemia): 6.84 µM
TGI (HT29 colon): 6.3 µM
TGI (CAKI-1 renal): 34.5 µM
TGI (SF-539 CNS): 3.89 µM
TGI (MALME-3M melanoma): 27.1 µM
TGI (K-562 leukemia): 4.62 µM
TGI (PC-3 prostate): 37.1 µM
TGI (RPMI-8226 leukemia): 4.88 µM
TGI (SF-268 CNS): 44.9 µM
TGI (RXF 393 renal): 52.2 µM
TGI (DU-145 prostate): 29.2 µM
TGI (MOLT-4 leukemia): > 100 µM
TGI (OVCAR-5 ovarian): 17.1 µM
TGI (HS 578T breast): > 100 µM
TGI (HOP-62 NSCLC): 4.72 µM
TGI (HL-60(TB) leukemia): 19.5 µM
TGI (M14 melanoma): 11.8 µM
TGI (ACHN renal): 3.9 µM
TGI (LOX IMVI melanoma): 7 µM
TGI (UO-31 renal): 5.11 µM
TGI (MDA-N): 21.2 µM
TGI (IGROV1 ovarian): 23 µM
TGI (UACC-257 melanoma): 41.2 µM
TGI (OVCAR-8 ovarian): 20.5 µM
TGI (SNB-19 CNS): > 100 µM
TGI (BT-549 breast): 35.9 µM
TGI (NCI-H522 lung): 30.7 µM
TGI (U251 CNS): > 100 µM
TGI (COLO 205 colon): 20.7 µM
TGI (KM12 colon): 10.7 µM
TGI (SW-620 colon): 7.53 µM
TGI (SN12C renal): 7.15 µM
TGI (MDA-MB-435): 30.9 µM
TGI (NCI-H460 lung): 26.2 µM
TGI (T-47D breast): 6.99 µM
TGI (MDA-MB-231 breast): 7.67 µM
TGI (HOP-92 NSCLC): 44.8 µM
TGI (OVCAR-3 ovarian): 30.8 µM
TGI (OVCAR-4 ovarian): 15.9 µM
TGI (TK-10 renal): 36.8 µM
TGI (CCRF-CEM leukemia): 8.35 µM
TGI (SK-MEL-28 melanoma): 14.7 µM
TGI (HCC-2998 colon): 5.42 µM
TGI (HCT-15 colon): 10.5 µM
TGI (EKVX NSCLC): 25.4 µM
TGI (HCT-116 colon): 3.98 µM

O=C1CC2C(=O)C1C(C(=O)O)C2C(=O)O (centres undefined)
TGI (MCF7 breast): > 100 µM
TGI (NCI-H23 lung): > 100 µM
TGI (SK-MEL-2 melanoma): > 100 µM
TGI (SK-MEL-5 melanoma): > 100 µM
TGI (UACC-62 melanoma): > 100 µM
TGI (NCI-H226 lung): > 100 µM
TGI (786-0 renal): > 100 µM
TGI (A549 NSCLC): > 100 µM
TGI (SF-295 CNS): > 100 µM
TGI (NCI/ADR-RES ovarian): > 100 µM
TGI (A498 renal): > 100 µM
TGI (SK-OV-3 ovarian): > 100 µM
TGI (SR leukemia): > 100 µM
TGI (HT29 colon): > 100 µM
TGI (CAKI-1 renal): > 100 µM
TGI (SF-539 CNS): > 100 µM
TGI (MALME-3M melanoma): > 100 µM
TGI (K-562 leukemia): > 100 µM
TGI (PC-3 prostate): > 100 µM
TGI (RPMI-8226 leukemia): > 100 µM
TGI (SF-268 CNS): > 100 µM
TGI (RXF 393 renal): > 100 µM
TGI (DU-145 prostate): > 100 µM
TGI (MOLT-4 leukemia): > 100 µM
TGI (OVCAR-5 ovarian): > 100 µM
TGI (HS 578T breast): > 100 µM
TGI (HOP-62 NSCLC): > 100 µM
TGI (HL-60(TB) leukemia): > 100 µM
TGI (M14 melanoma): > 100 µM
TGI (ACHN renal): > 100 µM
TGI (LOX IMVI melanoma): > 100 µM
TGI (UO-31 renal): > 100 µM
TGI (MDA-N): > 100 µM
TGI (IGROV1 ovarian): > 100 µM
TGI (UACC-257 melanoma): > 100 µM
TGI (OVCAR-8 ovarian): > 100 µM
TGI (SNB-19 CNS): > 100 µM
TGI (BT-549 breast): > 100 µM
TGI (NCI-H522 lung): > 100 µM
TGI (U251 CNS): > 100 µM
TGI (COLO 205 colon): > 100 µM
TGI (KM12 colon): > 100 µM
TGI (SW-620 colon): > 100 µM
TGI (SN12C renal): > 100 µM
TGI (MDA-MB-435): > 100 µM
TGI (NCI-H460 lung): > 100 µM
TGI (T-47D breast): > 100 µM
TGI (MDA-MB-231 breast): > 100 µM
TGI (HOP-92 NSCLC): > 100 µM
TGI (OVCAR-3 ovarian): > 100 µM
TGI (OVCAR-4 ovarian): > 100 µM
TGI (TK-10 renal): > 100 µM
TGI (CCRF-CEM leukemia): > 100 µM
TGI (SK-MEL-28 melanoma): > 100 µM
TGI (HCT-15 colon): > 100 µM
TGI (EKVX NSCLC): > 100 µM
TGI (HCT-116 colon): > 100 µM
